Assay results as given in US20110280849A1, “TUMOR SUPPRESSION USING HUMAN PLACENTA-DERIVED INTERMEDIATE NATURAL KILLER CELLS AND IMMUNOMODULATORY COMPOUNDS” (Anthrogenesis Corporation, priority 2010, published 2011).

How the values were obtained:
[1] = tested on: cultured PINK cells; test: qRT-PCR gene expression in lenalidomide- or pomalidomide-treated cultured PINK cells
From the text: Quantitative real-time (qRT-PCR) analysis. Isolated RNA can then be used for cDNA synthesis using TAQMAN® Reverse Transcription Reagents (Applied Biosystems, Cat #N8080234) followed by real-time PCR analysis by the 7900HT Fast Real-Time PCR System using Human Immune Array (Applied Biosystems, Cat #4370573) and Human MicroRNA Array (Applied Biosystems, Cat #4384792).
The paired t-test is used to determine if fold changes are equal in lenalidomide-treated and -untreated samples. […] The paired t-test is used to determine if fold changes are equal in treated and untreated samples.

[2] = tested on: NK cells; test: Flow cytometry of GZMB-positive NK cells after pomalidomide; assay type: cell-based, human

Structure (SMILES): Nc1cccc2c1C(=O)N(C1CCC(=O)NC1=O)C2=O (racemic) [pomalidomide, 4-amino-2-[(3RS)-2,6-dioxopiperidin-3-yl)-1H-isoindole-1,3(2H)-dione]
- increase in granzyme B (GZMB) gene expression [1]: 60%±1.7%
- increase in percentage of GZMB-positive NK cells [2]: 25%
